Results published in patent publication US20140039044A1, “Hydroxylated Polymethoxyflavone Compositions” (WLLGEN, INC., priority 2006, published 2014).

Columns and labels:
Assay type in all cases: cell-based, human
[1] = tested on: HL-60 cells; assay: Cell cycle distribution by flow cytometry; conditions: for Cell Cycle Distribution G0/G1 / Cell Cycle Distribution G2/M / Cell Cycle Distribution S: Table 10
Method in brief: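 HL-60 cells were treated for 24 h with compound at 5, 10, 25, 50 or 100 μM, or with DMSO. Cells were then ethanol-fixed, treated with Triton X-100/RNase and stained with propidium iodide. DNA content was measured by flow cytometry to give cell-cycle phase distribution.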

[2] = tested on: HT-29 cells; assay: Cell cycle distribution by flow cytometry; conditions: for Cell Cycle Distribution G0/G1 / Cell Cycle Distribution G2/M / Cell Cycle Distribution S: 24 h
Method in brief: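 Cells were treated 24 h with compound at 5, 10, 25, 50 or 100 μM, or with DMSO. They were then ethanol-fixed, RNase-treated and stained with propidium iodide. DNA content was measured by FACScan flow cytometry to give cell-cycle phase distribution.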

[3] = tested on: COLO205 cells; assay: Apoptotic ratio by propidium iodide flow cytometry (AC50); conditions: Homo sapiens, COLO 205; COLO205 cells; read-out: Apoptosis-inducing AC50
Method in brief: (§1)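 AC50 denotes the concentration that induces 50% apoptosis. It was derived from propidium iodide–DNA fluorescence measured by flow cytometry after ethanol fixation and RNase treatment. Cells were seeded at 2×10^5, grown 24 h, then exposed to test compounds for 24 h.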

[4] = tested on: HL-60 cells; assay: as above; conditions: Homo sapiens; HL-60 cells; read-out: Apoptosis-inducing AC50
Method in brief: as §1

[5] = tested on: AGS cells; assay: as above; conditions: Homo sapiens; AGS cells; read-out: Apoptosis-inducing AC50
Method in brief: as §1

[6] = tested on: COLO205 cells; assay: Cell cycle distribution by flow cytometry; conditions: COLO205 cells; for Cell Cycle Distribution G0/G1 / Cell Cycle Distribution G2/M / Cell Cycle Distribution S: 24 h, Table 12
Method in brief: (§2)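 Human cancer cells (2×10^5 per dish) exposed 24 h to compound at 5–100 μM, or DMSO. Cells ethanol-fixed at −20° C overnight, RNase/Triton-treated at 37° C for 30 min, then stained with propidium iodide. DNA content read by FACScan flow cytometry to give phase distribution.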

[7] = tested on: AGS cells; assay: Cell cycle distribution by flow cytometry; conditions: for Cell Cycle Distribution G0/G1 / Cell Cycle Distribution G2/M / Cell Cycle Distribution S: 24 h, Table 11
Method in brief: as §2

## COc1cc(-c2cc(=O)c3c(OC)c(OC)c(OC)c(OC)c3o2)cc(OC)c1OC [F, 5,6,7,8,3′,4′,5′-heptamethoxyflavone, reference compound]
[1]; 5 μM, 24 h
  Cell Cycle Distribution G0/G1: 42.11 ± 0.37
  Cell Cycle Distribution G2/M: 10.56 ± 1.16
  Cell Cycle Distribution S: 47.34 ± 1.53
[1]; 10 μM, 24 h
  Cell Cycle Distribution G0/G1: 48.35 ± 1.83
  Cell Cycle Distribution G2/M: 10.59 ± 1.46
  Cell Cycle Distribution S: 41.07 ± 0.37
[1]; 25 μM, 24 h
  Cell Cycle Distribution G0/G1: 57.82 ± 1.51
  Cell Cycle Distribution G2/M: 7.28 ± 1.54
  Cell Cycle Distribution S: 34.90 ± 0.03
[1]; 50 μM, 24 h
  Cell Cycle Distribution G0/G1: 60.39 ± 0.23
  Cell Cycle Distribution G2/M: 8.44 ± 0.54
  Cell Cycle Distribution S: 31.18 ± 0.30
[1]; 100 μM, 24 h
  Cell Cycle Distribution G0/G1: 63.66 ± 2.33
  Cell Cycle Distribution G2/M: 4.92 ± 0.46
  Cell Cycle Distribution S: 31.43 ± 1.87
[1]; 25-100 μM, 24 h
  Cell cycle arrest, in words: significant G1 arrest
[2]; 5 μM
  Cell Cycle Distribution G0/G1: 70.24 ± 0.52
  Cell Cycle Distribution G2/M: 7.11 ± 0.17
  Cell Cycle Distribution S: 22.66 ± 0.35
[2]; 10 μM
  Cell Cycle Distribution G0/G1: 76.34 ± 0.35
  Cell Cycle Distribution G2/M: 7.06 ± 0.42
  Cell Cycle Distribution S: 16.61 ± 0.06
[2]; 25 μM
  Cell Cycle Distribution G0/G1: 82.19 ± 0.16
  Cell Cycle Distribution G2/M: 6.83 ± 0.61
  Cell Cycle Distribution S: 10.98 ± 0.45
[2]; 50 μM
  Cell Cycle Distribution G0/G1: 88.64 ± 0.27
  Cell Cycle Distribution G2/M: 6.25 ± 0.58
  Cell Cycle Distribution S: 5.11 ± 0.31
[2]; 100 μM
  Cell Cycle Distribution G0/G1: 89.85 ± 0.13
  Cell Cycle Distribution G2/M: 6.07 ± 0.06
  Cell Cycle Distribution S: 4.10 ± 0.06
[2]; 5-100 μM, 24 h exposure
  Cell cycle arrest, in words: significant accumulation of cells in G1 phase
[3]
  AC50: > 100 µM
[4]
  AC50: > 100 µM
[5]
  AC50: > 100 µM
[6]; 5 μM
  Cell Cycle Distribution G0/G1: 68.30 ± 1.36
  Cell Cycle Distribution G2/M: 8.71 ± 0.55
  Cell Cycle Distribution S: 23.00 ± 0.80
[6]; 10 μM
  Cell Cycle Distribution G0/G1: 71.96 ± 0.24
  Cell Cycle Distribution G2/M: 8.38 ± 0.43
  Cell Cycle Distribution S: 19.67 ± 0.67
[6]; 25 μM
  Cell Cycle Distribution G0/G1: 72.22 ± 0.54
  Cell Cycle Distribution G2/M: 9.80 ± 0.20
  Cell Cycle Distribution S: 17.98 ± 0.74
[6]; 50 μM
  Cell Cycle Distribution G0/G1: 76.39 ± 0.85
  Cell Cycle Distribution G2/M: 8.02 ± 0.50
  Cell Cycle Distribution S: 15.60 ± 1.35
[6]; 100 μM
  Cell Cycle Distribution G0/G1: 78.64 ± 0.34
  Cell Cycle Distribution G2/M: 8.65 ± 0.19
  Cell Cycle Distribution S: 12.71 ± 0.52
[7]; 5 μM
  Cell Cycle Distribution G0/G1: 58.22 ± 1.10
  Cell Cycle Distribution G2/M: 14.76 ± 0.94
  Cell Cycle Distribution S: 27.02 ± 0.17
[7]; 10 μM
  Cell Cycle Distribution G0/G1: 62.41 ± 6.13
  Cell Cycle Distribution G2/M: 14.56 ± 0.58
  Cell Cycle Distribution S: 23.04 ± 5.55
[7]; 25 μM
  Cell Cycle Distribution G0/G1: 62.24 ± 0.71
  Cell Cycle Distribution G2/M: 15.34 ± 1.30
  Cell Cycle Distribution S: 22.57 ± 2.21
[7]; 50 μM
  Cell Cycle Distribution G0/G1: 65.87 ± 0.93
  Cell Cycle Distribution G2/M: 13.05 ± 0.98
  Cell Cycle Distribution S: 21.08 ± 1.90
[7]; 100 μM
  Cell Cycle Distribution G0/G1: 64.22 ± 5.56
  Cell Cycle Distribution G2/M: 13.92 ± 1.06
  Cell Cycle Distribution S: 21.86 ± 4.50

## COc1ccc(-c2cc(=O)c3c(O)c(OC)c(OC)c(OC)c3o2)cc1O [Compound K, 5,3′-dihydroxy-6,7,8,4′-tetramethoxyflavone]
[1]
  G2/M cell cycle arrest, in words: strongly potentiated the G2/M cell cycle arrest
[1]; 5 μM, 24 h
  Cell Cycle Distribution G0/G1: 0.56 ± 0.76
  Cell Cycle Distribution G2/M: 35.91 ± 0.11
  Cell Cycle Distribution S: 60.54 ± 4.90
[1]; 10 μM, 24 h
  Cell Cycle Distribution G0/G1: 0.38 ± 0.06
  Cell Cycle Distribution G2/M: 54.41 ± 4.77
  Cell Cycle Distribution S: 45.22 ± 4.83
[1]; 25 μM, 24 h
  Cell Cycle Distribution G0/G1: 0.68 ± 0.42
  Cell Cycle Distribution G2/M: 49.12 ± 2.64
  Cell Cycle Distribution S: 50.23 ± 3.08
[1]; 50 μM, 24 h
  Cell Cycle Distribution G0/G1: 2.63 ± 2.50
  Cell Cycle Distribution G2/M: 45.05 ± 0.01
  Cell Cycle Distribution S: 52.33 ± 2.51
[1]; 100 μM, 24 h
  Cell Cycle Distribution G0/G1: 3.18 ± 2.62
  Cell Cycle Distribution G2/M: 30.61 ± 4.64
  Cell Cycle Distribution S: 66.21 ± 1.72
[2]
  G2/M cell cycle arrest, in words: strongly potentiated the G2/M cell cycle arrest
[2]; 5 μM
  Cell Cycle Distribution G0/G1: 60.57 ± 0.04
  Cell Cycle Distribution G2/M: 9.87 ± 0.78
  Cell Cycle Distribution S: 29.71 ± 0.94
[2]; 10 μM
  Cell Cycle Distribution G0/G1: 57.94 ± 0.50
  Cell Cycle Distribution G2/M: 11.52 ± 0.27
  Cell Cycle Distribution S: 30.55 ± 0.77
[2]; 25 μM
  Cell Cycle Distribution G0/G1: 50.58 ± 1.35
  Cell Cycle Distribution G2/M: 12.49 ± 0.09
  Cell Cycle Distribution S: 36.94 ± 1.45
[2]; 50 μM
  Cell Cycle Distribution G0/G1: 64.13 ± 0.83
  Cell Cycle Distribution G2/M: 13.14 ± 0.47
  Cell Cycle Distribution S: 22.73 ± 0.37
[2]; 100 μM
  Cell Cycle Distribution G0/G1: 47.16 ± 2.59
  Cell Cycle Distribution G2/M: 36.12 ± 4.37
  Cell Cycle Distribution S: 16.72 ± 1.73
[3]
  AC50: > 100 µM
[4]
  AC50: > 100 µM
[5]
  AC50: 70 ± 1.4 µM
[6]
  G2/M cell cycle arrest, in words: strongly potentiated the G2/M cell cycle arrest
[6]; 5 μM
  Cell Cycle Distribution G0/G1: 57.68 ± 0.42
  Cell Cycle Distribution G2/M: 7.08 ± 0.20
  Cell Cycle Distribution S: 34.52 ± 0.21
[6]; 10 μM
  Cell Cycle Distribution G0/G1: 65.81 ± 0.83
  Cell Cycle Distribution G2/M: 1.75 ± 0.47
  Cell Cycle Distribution S: 32.44 ± 2.28
[6]; 25 μM
  Cell Cycle Distribution G0/G1: 66.63 ± 1.51
  Cell Cycle Distribution G2/M: 13.31 ± 1.91
  Cell Cycle Distribution S: 20.06 ± 0.40
[6]; 50 μM
  Cell Cycle Distribution G0/G1: 42.30 ± 1.12
  Cell Cycle Distribution G2/M: 23.42 ± 0.83
  Cell Cycle Distribution S: 34.29 ± 0.29
[6]; 100 μM
  Cell Cycle Distribution G0/G1: 43.58 ± 2.29
  Cell Cycle Distribution G2/M: 22.85 ± 2.96
  Cell Cycle Distribution S: 33.57 ± 0.67
[7]
  G2/M cell cycle arrest, in words: strongly potentiated the G2/M cell cycle arrest
[7]; 5 μM
  Cell Cycle Distribution G0/G1: 51.75 ± 0.73
  Cell Cycle Distribution G2/M: 13.65 ± 0.18
  Cell Cycle Distribution S: 34.61 ± 0.91
[7]; 10 μM
  Cell Cycle Distribution G0/G1: 22.20 ± 1.56
  Cell Cycle Distribution G2/M: 48.12 ± 1.35
  Cell Cycle Distribution S: 26.69 ± 0.91
[7]; 25 μM
  Cell Cycle Distribution G0/G1: 42.63 ± 0.05
  Cell Cycle Distribution G2/M: 34.57 ± 0.62
  Cell Cycle Distribution S: 22.81 ± 0.51
[7]; 50 μM
  Cell Cycle Distribution G0/G1: 43.90 ± 2.37
  Cell Cycle Distribution G2/M: 35.67 ± 2.29
  Cell Cycle Distribution S: 20.44 ± 0.08
[7]; 100 μM
  Cell Cycle Distribution G0/G1: 50.77 ± 1.01
  Cell Cycle Distribution G2/M: 31.20 ± 0.43
  Cell Cycle Distribution S: 18.04 ± 1.45
